For the data set the following is noted: 298.15 K, 101.33 kPa, Liquid; for viscosity: Capillary tube (Ostwald / Ubbelohde) method; for speed of sound: Sing-around technique in a fixed-path interferometer; for mass density: Vibrating tube method.

Numbers after ± are expanded uncertainties.

As for `CCCCOCCO` [2-butoxyethan-1-ol], the viscosity (in general, the resistance of a fluid to flow) is on record as 2.885 ± 0.12 mPa·s; the speed of sound (usually how fast a sound wave travels through the sample) worked out at 1306 ± 0.7 m/s; the mass density (in general, the mass of a sample divided by its volume) was 896.312 ± 0.083 kg/m3.

For `CCCCO` [butan-1-ol], the viscosity stood at 2.625 ± 0.12 mPa·s, the speed of sound was 1240.6 ± 0.71 m/s and the mass density is listed as 805.986 ± 0.12 kg/m3.

In the case of `CCC(C)O` (stereo not given) [butan-2-ol], the viscosity is recorded as 3.075 ± 0.12 mPa·s, the speed of sound was 1213.3 ± 0.81 m/s and the mass density turned out to be 802.563 ± 0.14 kg/m3.

Turning to `CCCO` [propan-1-ol], the viscosity was determined as 1.984 ± 0.12 mPa·s, the speed of sound is given as 1207 ± 0.8 m/s and the mass density turned out to be 800.13 ± 0.14 kg/m3.

With `CC(C)O` [propan-2-ol], the viscosity worked out at 2.111 ± 0.12 mPa·s, the speed of sound stood at 1140.6 ± 0.64 m/s and the mass density is reported as 781.588 ± 0.12 kg/m3.

Source of the values: the NIST ThermoML archive (doi:10.1016/j.fluid.2013.06.021).
